Test results: patent US10098937B2, “Peptides and combination of peptides for use in immunotherapy against various cancers” (immatics biotechnologies GmbH, priority 2015, dated 2018)

These substances were tested on HLA-A*24 (assay: MHC binding assay (UV-ligand exchange, β2m ELISA), HLA-A*24). Conditions: peptide exchange yield, Table 21.
Design: species or system human
Excerpt: Candidate peptides for T cell based therapies according to the present invention were further tested for their MHC binding capacity (affinity). The individual peptide-MHC complexes were produced by UV-ligand exchange, where a UV-sensitive peptide is cleaved upon UV-irradiation, and exchanged with the peptide of interest as analyzed. Only peptide candidates that can effectively bind and stabilize the peptide-receptive MHC molecules prevent dissociation of the MHC complexes. To determine the yield of the exchange reaction, an ELISA was performed based on the detection of the light chain (β2m) of stabilized MHC complexes. The assay was performed as generally described in Rodenko et al. (Rodenko et al., 2006).
96 well MAXISorp plates (NUNC) were coated over night with 2 ug/ml streptavidin in PBS at room temperature, washed 4× and blocked forth at 37° C. in 2% BSA containing blocking buffer. Refolded HLA-A*02:01/MLA-001 monomers served as standards, covering the range of 15-500 ng/ml. Peptide-MHC monomers of the UV-exchange reaction were diluted 100 fold in blocking buffer. Samples were incubated for 1 h at 37° C., washed four times, incubated with 2 ug/ml HRP conjugated anti-β2m for 1 h at 37° C., washed again and detected with TMB solution that is stopped with […]. Absorption was measured at 450 nm. Candidate peptides that show a high exchange yield (preferably higher than 50%, most preferred higher than 75%) are generally preferred for a generation and production of antibodies or fragments thereof, and/or T cell receptors or fragments thereof, as they show sufficient avidity to the MHC molecules and prevent dissociation of the MHC complexes.
“160 (VYTLDIPVL; listed as Homo sapiens) [compound 160]” was tested, and the Peptide exchange was “++++ (> = 75% = ++++)”. With “161 (IYLVSIPEL; listed as Homo sapiens) [compound 161]” the Peptide exchange was “++++ (> = 75% = ++++)”. “166 (YYVESGKLF; listed as Homo sapiens) [compound 166]” was tested, and the Peptide exchange was “++++ (> = 75% = ++++)”. In the case of “168 (KYQDILETI; listed as Homo sapiens) [compound 168]”, the Peptide exchange is reported as “++++ (> = 75% = ++++)”. For “172 (TYTTVPRVAF; listed as Homo sapiens) [compound 172]”, the Peptide exchange was “++++ (> = 75% = ++++)”. In the case of “173 (IYSWILDHF; listed as Homo sapiens) [compound 173]”, the Peptide exchange is reported as “++++ (> = 75% = ++++)”. In the case of “175 (YYEVHKELF; listed as Homo sapiens) [compound 175]”, the Peptide exchange is reported as “++++ (> = 75% = ++++)”. In the case of “177 (VYPWLGALL; listed as Homo sapiens) [compound 177]”, the Peptide exchange is reported as “++++ (> = 75% = ++++)”. For “179 (MYDSYWRQF; listed as Homo sapiens) [compound 179]”, the Peptide exchange was “++++ (> = 75% = ++++)”. With “181 (LYLDIINLF; listed as Homo sapiens) [compound 181]” the Peptide exchange was “++++ (> = 75% = ++++)”. With “184 (VFQNFPLLF; listed as Homo sapiens) [compound 184]” the Peptide exchange was “++++ (> = 75% = ++++)”. With “186 (IFPQFLYQF; listed as Homo sapiens) [compound 186]” the Peptide exchange was “++++ (> = 75% = ++++)”. For “187 (TYLRDQHFL; listed as Homo sapiens) [compound 187]”, the Peptide exchange was “++++ (> = 75% = ++++)”. For “192 (SYALLTYMI; listed as Homo sapiens) [compound 192]”, the Peptide exchange was “++++ (> = 75% = ++++)”. “193 (RFHPTPLLL; listed as Homo sapiens) [compound 193]” was tested, and the Peptide exchange was “++++ (> = 75% = ++++)”. In the case of “194 (EFGSLHLEFL; listed as Homo sapiens) [compound 194]”, the Peptide exchange is reported as “+ (<20% = +)”. With “195 (TYSVSFPMF; listed as Homo sapiens) [compound 195]” the Peptide exchange was “++++ (> = 75% = ++++)”. With “202 (VYWDSAGAAHF; listed as Homo sapiens) [compound 202]” the Peptide exchange was “++++ (> = 75% = ++++)”. For “210 (IYTMIYRNL; listed as Homo sapiens) [compound 210]”, the Peptide exchange was “++++ (> = 75% = ++++)”. For “211 (YYLEVGKTLI; listed as Homo sapiens) [compound 211]”, the Peptide exchange was “++++ (> = 75% = ++++)”. With “216 (QYSSVFKSL; listed as Homo sapiens) [compound 216]” the Peptide exchange was “++++ (> = 75% = ++++)”. “217 (FFPPTRQMGLLF; listed as Homo sapiens) [compound 217]” was tested, and the Peptide exchange was “++++ (> = 75% = ++++)”. “227 (IFLDYEAGTLSF; listed as Homo sapiens) [compound 227]” was tested, and the Peptide exchange was “++++ (> = 75% = ++++)”. With “228 (KYTSWYVAL; listed as Homo sapiens) [compound 228]” the Peptide exchange was “++++ (> = 75% = ++++)”. With “267 (KYMVYPQTF; listed as Homo sapiens) [compound 267]” the Peptide exchange was “++++ (> = 75% = ++++)”. “271 (LYHDIFSRL; listed as Homo sapiens) [compound 271]” was tested, and the Peptide exchange was “++++ (> = 75% = ++++)”. In the case of “272 (QYLQDAYSF; listed as Homo sapiens) [compound 272]”, the Peptide exchange is reported as “++++ (> = 75% = ++++)”. “274 (AYLHSHALI; listed as Homo sapiens) [compound 274]” was tested, and the Peptide exchange was “++++ (> = 75% = ++++)”. “276 (VYGFQWRHF; listed as Homo sapiens) [compound 276]” was tested, and the Peptide exchange was “++++ (> = 75% = ++++)”. “277 (VYQGHTALL; listed as Homo sapiens) [compound 277]” was tested, and the Peptide exchange was “++++ (> = 75% = ++++)”. In the case of “278 (RYISDQLFTNF; listed as Homo sapiens) [compound 278]”, the Peptide exchange is reported as “++++ (> = 75% = ++++)”. For “280 (RYPDNLKHLYL; listed as Homo sapiens) [compound 280]”, the Peptide exchange was “++++ (> = 75% = ++++)”.
